Measured values as given in publication PMC13055374, “Engineered antimicrobial-derived peptides to manipulate mixed microbial systems” (Microbiology Spectrum, 2026).
No end group written: not given here. *: point of attachment. FITC = O=C1OC2(c3ccc(O)cc3Oc3cc(O)ccc32)c2ccc(NC(=S)*)cc21

Tests used:
L. seeligeri [1] = assay: Cell-binding assay by flow cytometry; parameters: species or system Listeria seeligeri; conditions: for pH dependence of binding: pH 4.0, 6.0 and 7.4, Fig. S10
Method: (§1) The binding affinity and avidity of pediocin to various gram-positive and gram-negative bacteria were studied using flow cytometry. Late log-phase cells were washed in the sodium phosphate buffer (5 mM, pH 6.0) and resuspended at an OD600 of 10^–3 in sodium-acetate buffer (25 mM, pH 4.0), sodium phosphate buffer (5 mM, pH 6.0), or sodium phosphate buffer (5 mM, pH 7.4) containing 1% bovine serum albumin (BSA) and 100 mM NaCl. Cells were incubated with varying concentrations of the conjugated peptide at 4°C for 30 min. The unbound peptide was removed by centrifugation, and the pellet was resuspended in its respective binding buffer containing 1% BSA. Flow cytometry was performed on an Attune NxT flow cytometer (Life Technologies/ThermoFisher Scientific, Carlsbad, CA). Data (≥10^4 events were recorded) were recorded using a […] (488 nm) at a voltage of 360 V, and gating was performed on an SSC-A versus SSC-H plot to reduce false events.

L. seeligeri [2] = type: cell-based, Listeria seeligeri; conditions: for antimicrobial activity of conjugated peptides: growth inhibition, Fig. S7 and S9
Method: To determine the potency of the purified pediocin PA-1, we generated kill curves against a range of target bacteria (Fig. 1C). The concentration range tested was 3 pM to 3 μM following 10-fold serial dilutions. […] This is in approximate agreement with the published potency of pediocin PA-1 ([46]). Though the molecular mass of pediocin PA-1 is expected to be 4.5 kDa, we observed the partially purified peptide to migrate with an apparent mass of ~12.5 kDa (Fig. 1B). However, subsequent analysis by LC-MS yielded peaks of multiple m/z with the predominant peak at the expected molecular size of 4.6 kDa (Fig. S4). The purified pediocin PA-1, separated on denaturing but non-reducing SDS-PAGE (since this bacteriocin contains two crucial disulfide bonds), was subjected to agar-overlay assay using L. seeligeri as the indicator organism (Fig. S5).
The antimicrobial spectrum of pediocin PA-1 was assayed using a kill curve. Cultures grown overnight were resuspended in fresh medium at an OD600 of 0.05. EC50 was determined by incubating cells with varying concentrations of pediocin in a 96-well plate, and growth was measured at 600 nm after 24 h.
Figure S7. Growth inhibition of L. seeligeri by modified and unmodified pediocin PA-1.

L. cremoris = assay: Cell-binding assay by flow cytometry; parameters: species or system Lactococcus cremoris; conditions: pH 6.0, flow cytometry, 4°C, 30 min; read-out: apparent KD
Method: as §1

L. plantarum = assay: Cell-binding assay by flow cytometry; parameters: species or system Lactiplantibacillus plantarum; conditions: pH 6.0, Fig. 3C
Method: as §1

[3] = system: L. seeligeri in a synthetic community; assay: Binding assay in the mixed community: FACS depletion of FITC-labeled cells, 16S sequencing of the fluorescence-negative population; type: cell-based, Listeria seeligeri; conditions: before versus after sorting; pH 6.0, 4°C, 30 min; Fig. 4B
Text: We posited that the pediocin PA-1 characterized here could be a potential tool to modulate the abundance of specific species in an intact microbial community. To this end, we pursued two approaches: (i) using synthetic pediocin PA-1 to deplete specific species by killing and (ii) using FITC-conjugated pediocin PA-1 to deplete specific species by cell sorting. To deplete L. seeligeri by killing, we created a synthetic community of Lacticaseibacillus casei, L. plantarum, L. cremoris, E. faecium, and L. seeligeri and grew it for 2 h. We then split the culture into three parts to which we added 1 μM, 10 μM, or 0 (control) unmodified pediocin PA-1 (Lifetein), respectively. […] Next, we assessed the ability of FITC-conjugated pediocin (Ped-FITC) and its 15-mer version to deplete the target species through cell sorting. Again, we created a synthetic community containing L. seeligeri in abundance and assessed the proportion before and after fluorescence-activated cell sorting (FACS) of FITC-labeled cells. We attempted to sequence the fluorescence-positive population but were unsuccessful due to poor DNA yield. However, the genomic DNA isolated from the fluorescence-negative population indicated depletion of more than 50% in the proportion of L. seeligeri from the synthetic community (Fig. 4B). […]

L. seeligeri [4] = assay: Inhibition of the activity of full-length unmodified synthetic pediocin by truncated FITC peptides (growth inhibition curve); type: cell-based, Listeria seeligeri; conditions: Fig. S9
Text: Despite similar primary structures, the pediocin-like bacteriocins differ in their target cell specificity (i.e., they differ in their antimicrobial spectra) ([49]). By determining the target cell specificity of hybrid bacteriocins containing N- and C-terminal regions from different pediocin-like bacteriocins, it has been shown that the C-termini of these bacteriocins determine target cell specificity ([49], [50]). […] Taking a cue from these studies, we proceeded to investigate whether fragments of pediocin PA-1 could serve as tags to specifically label pediocin-sensitive species without killing them. These could serve as tools to isolate target microorganisms from mixed samples. To this end, we synthesized fluorescein isothiocyanate (FITC)-conjugated versions of pediocin PA-1, a 15-mer (K20–A34) and an extended 30-mer fragment (S15–K43; Fig. S8). We first tested the bioactivity profile of FITC-conjugated pediocin and its fragments. […] Though the inactivity of 15-mer and 30-mer is expected, the loss of activity of pediocin-FITC conjugate could indicate the steric hindrance due to the fluorophore at the N-terminal, which is known to be critical for cell attachment ([53]). To test if this is due to the synthesis of the FITC-conjugate, we conjugated biotin, 7-nitrobenz-2-oxa-1,3-diazole (NBD), and Atto488 to the synthetic pediocin using EDC–NHS coupling (Fig. S6). […]

Enterococcus faecium = assay: Cell-binding assay by flow cytometry; conditions: pH 6.0, Fig. 3C
Method: as §1

L. coryniformis = assay: Cell-binding assay by flow cytometry; parameters: species or system Lactobacillus coryniformis
Method: as §1

Bacillus subtilis = assay: Cell-binding assay by flow cytometry; conditions: pH 6.0, at the highest concentration (30 μM) tested
Method: as §1

| Substance | pH dependence of binding (L. seeligeri [1]) | antimicrobial activity of conjugated peptides (L. seeligeri [2]) | Kd (L. cremoris) [µM] | binding (L. plantarum) | depletion in the proportion of L. seeligeri, fluorescence-negative population after FACS [3] | ability to inhibit the activity of the full-length unmodified synthetic pediocin (L. seeligeri [4]) | binding (Enterococcus faecium) | increase of EC50 relative to the unmodified peptide (L. seeligeri [2]; kill curve, Fig. S7) [fold] | maximum fluorescence (L. coryniformis; flow cytometry) | Kd (L. seeligeri [1]; pH 6.0, flow cytometry, 4°C, 30 min, read-out: apparent KD) [µM] | binding (Bacillus subtilis) | binding under acidic conditions (L. coryniformis; Fig. S10) | binding (L. seeligeri [1]; pH 6.0, Fig. 3) |
| --- | --- | --- | --- | --- | --- | --- | --- | --- | --- | --- | --- | --- | --- |
| 15-mer-FITC: FITC-conjugated 15-mer fragment (K20–A34) of pediocin PA-1 (KATTCIINNGAMAWA; also: FITC-conjugated (site not given here); UniProt P29430 38-52, looked up, fragment) | higher MFI at higher pHs | completely abolished | 38 ± 4.7 | modest binding | more than 50% | unable to do so | modest binding | – | – | – | – | – | – |
| Ped-488: purified biosynthetic pediocin conjugated to Atto488 using EDC–NHS chemistry (KYYGNGVTCGKHSCSVDWGKATTCIINNGAMAWATGGHQGNHKC; ends and bridges not checked; also: Atto488 conjugated by EDC–NHS chemistry (site not given here); UniProt P29430 19-62, looked up) | – | – | – | – | – | – | – | > 100 | 6,300 MFI | – | – | – | – |
| Pediocin-FITC: synthesized fluorescein isothiocyanate (FITC)-conjugated full-length pediocin PA-1 ({FITC}-KYYGNGVTCGKHSCSVDWGKATTCIINNGAMAWATGGHQGNHKC; ends and bridges not checked; also: two disulfide bonds, pairing not given here; UniProt P29430 19-62, looked up) | strong binding to L. seeligeri at all the tested pHs | completely abolished | – | – | more than 50% | – | – | – | – | 0.082 ± 0.011 | modest binding | surprisingly poor binding | – |
| 30-mer-FITC: FITC-conjugated extended 30-mer fragment (S15–K43) of pediocin PA-1 (SVDWGKATTCIINNGAMAWATGGHQGNHK; also: FITC-conjugated (site not given here); UniProt P29430 33-61, looked up, fragment) | higher MFI at higher pHs | completely abolished | – | – | – | unable to do so | – | – | – | – | – | – | did not show appreciable binding |
